# Test results reported in patent publication US5935597A, “Drug delivery devices and methods for treatment of viral and microbial infections and wasting syndromes” (Cryopreservation Technologies CC, priority 1995, dated 1999).
# Experiments:
# [1] = tested on: malignant cells; conditions: cells treated in vitro, then inoculated into nude mice; cited from earlier work
# [2] = Example 7: plasma/blood DMF level in HIV-1 patients treated with DMF dermal patches; assay type: in vivo; conditions: human, blood, topical or ocular, 14000 mg
# Protocol: Two skin patches were applied to different parts of the patient's body, for example to the forearm. […] The gel served to prevent leakage of liquid DMF from the patches. […] For a patient weighing about 60 kg, an amount of about 14 g over a period of 12 hours is required to produce a level of 100 ppm. Based on studies by Marz and Nohova the surface area required to absorb this amount in about 127,2 cm^2. […] Absorption capability varies from patient to patient depending on factors such as skin-type and skin thickness.
# (§1) Each patch was applied for a period of 12 hours, either once per week over a period of 12 weeks, or twice per week over a period of 6 weeks.
# Daily full clinical and psychological evaluations were also conducted.
# [3] = tested on: virus particles, e.g. the capsid; reverse transcriptase; protease; test: In vitro tests of DMF on virus particles
# [4] = Example 8 pilot study: body weight; assay type: in vivo, human
# Protocol: (§2) A pilot study was conducted to evaluate the efficacy of transdermal DMF in the treatment of patients infected with HIV. Informed consent was obtained from each patient. Seropositive status was verified by Western blot using a commercial kit for detecting antibodies to p24 (Abbott Diagnostics) and the presence of HIV-1 was documented by quantitative PCR using a commercial kit (Roche Amplicor).
# (§3) Dermal patches 9 cm in diameter were used within 12 hours of manufacture. […] The patches were visually inspected to verify the absence of leakage and were weighed on an analytical balance to verify less than 10% deviation from a total mass of 8.153 g. The patches were applied to the skin of the forearm and secured with Elastoplast™ bandages. Either one or two patches were used for the initial dose, as determined from the predicted skin transfer rate of 9.4 mg/cm^2 /hr and the patient's body weight.
# (§4) A staged dose of DMF was used, with two-hourly blood and urine sampling to determine peak plasma DMF levels. […] Initial evaluation included daily determination of:
# a) vital signs and body weight;
# [5] = Physicochemical properties of DMF; conditions: gel patches
# [6] = tested on: HIV-1; test: Example 8 pilot study: HIV-1 load by quantitative PCR (Roche Amplicor); assay type: in vivo, human
# Protocol: as §2, §3, §4
# d) Quantitative estimates of HIV-1 load by PCR (Roche Amplicor) and analysis of antibody to p24 (Abbott);
# [7] = tested on: CD4+ T cell; test: Example 8 pilot study: CD4+ T cell count (Coulter analysis); assay type: in vivo, human
# Protocol: as §2, §3, §4
# c) Coulter analysis of CD4+ and CD8+ counts and CD4/CD8 ratio;
# [8] = Example 8 pilot study: peak plasma DMF level (GC/MS); assay type: in vivo; conditions: human, topical or ocular
# Protocol: as §2
# Operational parameters were as follows: GC temperature program: 60° C. for 1 min. followed by a temperature gradient of 9.4° C./min. for 20 min. MS ionization method: electron impact; mass range: 40-80 mass units; 1 scan/sec; peak threshold: 3 counts/sec; background mass: 69 mass units. A stock solution of dimethylacetamide was used as an internal standard. All samples were extracted with an organic solvent containing the internal standard, allowed to precipitate for 30 min. in a refrigerator, and centrifuged at 3000×g for 5 min. before transfer to GC vials for injection.
# as §3
# A staged dose of DMF was used, with two-hourly blood and urine sampling to determine peak plasma DMF levels. […] Initial evaluation included daily determination of: […]
# [9] = tested on: HIV; conditions: certain cultured cell lines; cited from earlier work
# [10] = tested on: transformed cells; conditions: in vitro, certain transformed cells; cited from earlier work
# [11] = tested on: CD4 T-cell; test: Example 7: CD4 T-cell counts in blood of HIV-1 patients; assay type: in vivo, human; conditions: certain patients; increase from 350; transdermal DMF
# Protocol: as §1
# (§5) Blood tests in certain patients indicated an increase in CD4 T-cell counts from 350 to 1000, and a rapid reduction of PCR (Polymerase chain reaction) (viral load) of 120,000 to 500/ml within three weeks with as little as three treatments. […] The PCR test conducted was the Roche amplicor HIV monitor. A viral load of <500/ml plasma is considered to be undetectable.
# (§6) A daily virological serology workout to establish total body virus count and to monitor improvements in the immune status of the patient (CD4+ T-helper cells) and prognostic factors were also conducted. The serology workout was based on p24 antigen and quantitative PCR or, optionally, by other methods. A weekly determination of CD4 counts and […] was also conducted specifically to monitor improvements in the patient's immune status and prognosis. All clinical and laboratory data were fed into a centralized data system to facilitate rapid response to any detrimental change so as to curtail treatment to maximize clinical effect and minimize potential side effects.
# [12] = tested on: HIV-1; test: Example 7: HIV-1 viral load by quantitative PCR (Roche amplicor HIV monitor); assay type: in vivo, human; conditions: certain patients; reduction from 120,000; within three weeks, as little as three treatments
# Protocol: as §1, §5, §6
# [13] = tested on: Human Herpes Virus 6 (HHV-6); conditions: certain cultured cell lines; cited from earlier work
# [14] = water, alcohols and some hydrocarbons; cited from earlier work
smiles,measurement,setting,value
"CN(C)C=O [DMF, N,N'-dimethylformamide]",tumorigenicity,[1],reduce their tumorigenicity
same,concentration at 12 h,[2],100 µg/mL
same,effect on virus particles,[3]; in vitro,"it appears that the solvent properties of DMF dissolve the virus particles, e.g. the capsid"
same,apparent mode of action,[3]; it appears as if,acts as at least one of a reverse transcriptase inhibitor and a protease inhibitor
same,body weight,"[4]; Patient 1, after 7 weeks, from 74.2",100 kg
same,body weight,"[4]; Patient 2, after 9 weeks, from 58.4",63.0 kg
same,body weight,"[4]; Patient 3, after 10 weeks, from 81.9",96.0 kg
same,body weight,"[4]; Patient 4, after 18 weeks, from 81.5",90.4 kg
same,body weight,"[4]; Patient 5, after 19 weeks, from 75.4",84.6 kg
same,body weight,"[4]; Patient 6, after 5 weeks, from 56.0",58.0 kg
same,body weight,"[4]; Patient 7, after 9 treatments, from 46.5",49.0 kg
same,body weight,"[4]; Patient 8, after 8 weeks, from 48.1",52.2 kg
same,weight gain,[4]; all patients,All the patients gained weight
same,evaporation,[5],evaporates rapidly
same,PCR-measured viral load,"[6]; Patient 1, after 7 weeks, from 222,000","160,000 copies/ml"
same,PCR-measured viral load,"[6]; Patient 2, after 9 weeks, from 29,000","13,000 copies/ml"
same,PCR-measured viral load,"[6]; Patient 3, after 9 weeks, from 250,000","50,000 copies/ml"
same,PCR-measured viral load,"[6]; Patient 4, after 18 weeks, from 13,000","4,000 copies/ml"
same,PCR-measured viral load,"[6]; Patient 5, after 19 weeks, from 120,000","24,000 copies/ml"
same,PCR-measured viral load,"[6]; Patient 6, after 5 weeks, from 156,000","13,000 copies/ml"
same,PCR-measured viral load,"[6]; Patient 7, after 9 treatments, initial 1,156,000","9,000 copies/ml"
same,PCR-measured viral load,"[6]; Patient 8, after 8 weeks, from 1,200,000","250,000 copies/ml"
same,decline in PCR-measured viral load,"[6]; after 42 days, Gompertz curve fit, five out of eight patients",88.8%
same,CD4+ T cell count,"[7]; Patient 1, after 7 weeks, from 39",138 cells/μl
same,CD4+ T cell count,"[7]; Patient 2, after 9 weeks, from 460",720 cells/μl
same,CD4+ T cell count,"[7]; Patient 3, after 9 weeks, from 140",640 cells/μl
same,CD4+ T cell count,"[7]; Patient 4, after 18 weeks, from 249",450 cells/μl
same,CD4+ cell count,"[7]; Patient 5, after 19 weeks, from 260",450 cells/μl
same,CD4+ T cell count,"[7]; Patient 6, after 5 weeks, from 354",396 cells/μl
same,CD4+ T cell count,"[7]; Patient 7, after 9 treatments, initial 29",35 cells/μl
same,CD4+ T cell count,"[7]; Patient 7, after the first treatment, initial 29",14 cells/μl
same,CD4+ T cell count,"[7]; Patient 8, after 8 weeks, from 200",240 cells/μl
same,increase in CD4+ T cell counts,"[7]; after 42 days, Gompertz curve fit, seven out of eight patients",73.4%
same,Cmax,"[8]; 3750 mg, Patient 6, two patches once weekly, 6 hours, average weekly dose 3.75 g",67 µg/mL
same,Cmax,"[8]; 4600 mg, Patient 7, 1 patch, 4 hours, average weekly dose 4.60 g",100 µg/mL
same,Cmax,"[8]; 6110 mg, Patient 3, two patches once a week, 8 hours, average weekly dose 6.11 g",75 µg/mL
same,Cmax,"[8]; 6240 mg, Patient 8, two patches once weekly, 8 hours, average weekly dose 6.24 g",130 µg/mL
same,Cmax,"[8]; 7120 mg, Patient 2, one patch per week, 8 hours, average weekly dose 7.12 g",125 µg/mL
same,Cmax,"[8]; 7330 mg, Patient 4, two patches once weekly, 8 hours, average weekly dose 7.33 g",90 µg/mL
same,Cmax,"[8]; 8250 mg, Patient 5, two patches weekly, 8 hours, average weekly dose 8.25 g",110 µg/mL
same,Cmax,"[8]; 8970 mg, Patient 1, two patches once a week, 8 hours, average weekly dose 8.97 g",121 µg/mL
same,in vitro replication of HIV,[9],inhibit in vitro replication of HIV
same,differentiation,[10],in vitro differentiating agent
same,CD4 T-cell count,[11],1000
same,PCR viral load,[12],500 mL⁻¹
same,in vitro replication of HHV-6,[13],inhibit in vitro replication of HIV and Human Herpes Virus 6 (HHV-6)
same,miscibility,[14],"freely miscible with water, alcohols and some hydrocarbons"
